Results on seven compounds are retold here after patent US9181305B2, “Exendin-4 peptide analogues” (SANOFI, priority 2012, dated 2015).

SMILES strings stand for the structures. *1 amine or outer side, *2 acyl side, *3 side chain or, on linkers, in order; H or OH if unused. Where a SMILES comes first, the peptide text is derived from it. Side-chain parts run from the residue outwards. [ ]: non-standard residue; d: D form. The star is where a group is joined. γGlu = O=C(O)[C@H](CCC(=O)[*:2])N[*:1]; Palmitoyl = CCCCCCCCCCCCCCCC(=O)*; Cha = N[C@@H](CC1CCCCC1)C(=O)O; Orn = NCCC[C@H](N)C(=O)O; Aib = CC(C)(N)C(=O)O; βAla = NCCC(=O)O

By EC50 is commonly meant the midpoint of the concentration-response curve. Lower therefore signals a more potent agent.

This test concerns the target T1, human GLP-1 receptor (hGLP-1 R) (Homo sapiens, UniProt P43220).
T1 construct: expressed in transfected cells; host or cells: HEK-293
The test is described as follows: cAMP response (HTRF) of HEK-293 cells stably expressing human GLP-1 receptor. It counts as cell-based. The note with it: HEK-293 cells expressing human GLP-1 receptor, cAMP formation. The procedure:
cAMP content of cells was determined using a kit from Cisbio Corp. (cat. no. 62AM4PEC) based on HTRF (Homogenous Time Resolved Fluorescence). For preparation, cells were split into T175 culture flasks and grown overnight to near confluency in medium (DMEM/10% FBS). Medium was then removed and cells washed with PBS lacking calcium and magnesium, followed by proteinase treatment with accutase (Sigma-Aldrich cat. no. A6964). Detached cells were washed and resuspended in assay buffer (1×HBSS; 20 mM HEPES, 0.1% BSA, 2 mM IBMX) and cellular density determined. […] For measurement, 25 μl of test compound in assay buffer was added to the wells, followed by incubation for 30 minutes at room temperature.

T1 sequence (P43220 24-463): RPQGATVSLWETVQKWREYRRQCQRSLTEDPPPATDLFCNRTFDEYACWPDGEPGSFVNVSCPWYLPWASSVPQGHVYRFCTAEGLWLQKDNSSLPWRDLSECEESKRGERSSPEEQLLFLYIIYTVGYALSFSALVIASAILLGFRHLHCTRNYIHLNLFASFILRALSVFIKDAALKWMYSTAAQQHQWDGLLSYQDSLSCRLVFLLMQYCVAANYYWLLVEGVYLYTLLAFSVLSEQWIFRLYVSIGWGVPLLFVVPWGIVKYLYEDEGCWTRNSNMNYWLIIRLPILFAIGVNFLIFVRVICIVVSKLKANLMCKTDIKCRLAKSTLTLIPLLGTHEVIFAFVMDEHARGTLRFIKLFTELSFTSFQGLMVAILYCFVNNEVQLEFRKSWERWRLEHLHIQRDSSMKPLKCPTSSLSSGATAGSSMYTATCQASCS

`CCCCCCCCCCCCCCCC(=O)N[C@@H](CCC(=O)NCCCC[C@H](NC(=O)[C@@H]1CCCN1C(=O)[C@@H]1CCCN1C(=O)[C@@H]1CCCN1C(=O)[C@H](C)NC(=O)CNC(=O)[C@H](CO)NC(=O)[C@H](CO)NC(=O)[C@@H]1CCCN1C(=O)CNC(=O)CNC(=O)C(C)(C)NC(=O)[C@H](CCCCN)NC(=O)[C@H](CC(C)C)NC(=O)[C@H](Cc1c[nH]c2ccccc12)NC(=O)[C@H](CCC(=O)O)NC(=O)[C@@H](NC(=O)[C@H](Cc1ccccc1)NC(=O)[C@H](CC(=O)O)NC(=O)[C@H](CCC(N)=O)NC(=O)[C@H](C)NC(=O)[C@H](CCCNC(=N)N)NC(=O)[C@H](CCCNC(=N)N)NC(=O)[C@H](CO)NC(=O)[C@H](CCC(=O)O)NC(=O)[C@H](CCSC)NC(=O)[C@H](CCC(N)=O)NC(=O)[C@H](CCCCN)NC(=O)[C@H](CO)NC(=O)[C@H](CC(C)C)NC(=O)[C@H](CC(=O)O)NC(=O)[C@H](CO)NC(=O)[C@@H](NC(=O)[C@H](Cc1ccccc1)NC(=O)[C@@H](NC(=O)CNC(=O)[C@H](CCC(N)=O)NC(=O)[C@@H](CO)NC(=O)[C@@H](N)Cc1c[nH]cn1)[C@@H](C)O)[C@@H](C)O)[C@@H](C)CC)C(N)=O)C(=O)O` [(80)] (H-H[dS]QGTFTSDLSKQMESRRAQDFIEWLK[Aib]GGPSSGAPPPK([γGlu-Palmitoyl])-NH2) yielded an EC50 of 10.8 pM.

As for `CCCCCCCCCCCCCCCC(=O)N[C@@H](CCC(=O)NCCC[C@H](NC(=O)[C@H](CO)NC(=O)[C@@H]1CCCN1C(=O)[C@@H]1CCCN1C(=O)[C@@H]1CCCN1C(=O)[C@H](C)NC(=O)CNC(=O)[C@H](CO)NC(=O)[C@H](CO)NC(=O)[C@@H]1CCCN1C(=O)CNC(=O)CNC(=O)[C@H](CO)NC(=O)[C@H](CCCCN)NC(=O)[C@H](CC(C)C)NC(=O)[C@H](Cc1c[nH]c2ccccc12)NC(=O)[C@H](CCC(=O)O)NC(=O)[C@@H](NC(=O)[C@H](Cc1ccccc1)NC(=O)[C@H](CC(=O)O)NC(=O)[C@H](CCC(N)=O)NC(=O)[C@H](C)NC(=O)[C@H](CCCNC(=N)N)NC(=O)[C@H](CCCNC(=N)N)NC(=O)[C@H](CO)NC(=O)[C@H](CCC(=O)O)NC(=O)[C@H](CCSC)NC(=O)[C@H](CCC(N)=O)NC(=O)[C@H](CCCCN)NC(=O)[C@H](CO)NC(=O)[C@H](CC(C)C)NC(=O)[C@H](CC(=O)O)NC(=O)[C@H](CO)NC(=O)[C@@H](NC(=O)[C@H](Cc1ccccc1)NC(=O)[C@@H](NC(=O)CNC(=O)[C@H](CCC(N)=O)NC(=O)[C@@H](CO)NC(=O)[C@@H](N)Cc1c[nH]cn1)[C@@H](C)O)[C@@H](C)O)[C@@H](C)CC)C(N)=O)C(=O)O` [(88)] (H-H[dS]QGTFTSDLSKQMESRRAQDFIEWLKSGGPSSGAPPPS[Orn]([γGlu-Palmitoyl])-NH2), the response was half-maximal at 5.1 pM (EC50). Compared with the last compound, the EC50 is about 2.1-fold lower.

The compound `CCCCCCCCCCCCCCCC(=O)N[C@@H](CCC(=O)NCCCC[C@H](NC(=O)[C@H](CO)NC(=O)[C@@H]1CCCN1C(=O)[C@@H]1CCCN1C(=O)[C@@H]1CCCN1C(=O)[C@H](C)NC(=O)CNC(=O)[C@H](CO)NC(=O)[C@H](CO)NC(=O)[C@@H]1CCCN1C(=O)CNC(=O)CNC(=O)[C@H](CO)NC(=O)[C@H](CCCCN)NC(=O)[C@H](CC(C)C)NC(=O)[C@H](Cc1c[nH]c2ccccc12)NC(=O)[C@H](CCC(=O)O)NC(=O)[C@@H](NC(=O)[C@H](Cc1ccccc1)NC(=O)[C@H](CC(C)C)NC(=O)[C@H](CCCNC(=N)N)NC(=O)[C@H](C)NC(=O)[C@H](CCCNC(=N)N)NC(=O)[C@H](CCCNC(=N)N)NC(=O)[C@H](CO)NC(=O)[C@H](CCC(=O)O)NC(=O)[C@H](CCSC)NC(=O)[C@H](CCC(N)=O)NC(=O)[C@H](CCCCN)NC(=O)[C@H](CO)NC(=O)[C@H](CC(C)C)NC(=O)[C@H](CC(=O)O)NC(=O)[C@H](CO)NC(=O)[C@@H](NC(=O)[C@H](Cc1ccccc1)NC(=O)[C@@H](NC(=O)CNC(=O)[C@H](CCC(N)=O)NC(=O)[C@@H](CO)NC(=O)[C@@H](N)Cc1c[nH]cn1)[C@@H](C)O)[C@@H](C)O)[C@@H](C)CC)C(N)=O)C(=O)O` [(91)] (H-H[dS]QGTFTSDLSKQMESRRARLFIEWLKSGGPSSGAPPPSK([γGlu-Palmitoyl])-NH2) returned an EC50 of 6.7 pM.

For the compound `CCCCCCCCCCCCCCCC(=O)N[C@@H](CCC(=O)NCCCC[C@H](NC(=O)[C@H](CO)NC(=O)[C@@H]1CCCN1C(=O)[C@@H]1CCCN1C(=O)[C@@H]1CCCN1C(=O)[C@H](C)NC(=O)CNC(=O)[C@H](CO)NC(=O)[C@H](CO)NC(=O)[C@@H]1CCCN1C(=O)CNC(=O)CNC(=O)[C@H](C)NC(=O)[C@H](CCCCN)NC(=O)[C@H](CC(C)C)NC(=O)[C@H](Cc1c[nH]c2ccccc12)NC(=O)[C@H](CCC(=O)O)NC(=O)[C@@H](NC(=O)[C@H](Cc1ccccc1)NC(=O)[C@H](CC(=O)O)NC(=O)[C@H](CCC(N)=O)NC(=O)[C@H](C)NC(=O)[C@H](CCCNC(=N)N)NC(=O)[C@H](CCCNC(=N)N)NC(=O)[C@H](CO)NC(=O)[C@H](CCC(=O)O)NC(=O)[C@H](CC1CCCCC1)NC(=O)[C@H](CCC(N)=O)NC(=O)[C@H](CCCCN)NC(=O)[C@H](CO)NC(=O)[C@H](CC(C)C)NC(=O)[C@H](CC(=O)O)NC(=O)[C@H](CO)NC(=O)[C@@H](NC(=O)[C@H](Cc1ccccc1)NC(=O)[C@@H](NC(=O)CNC(=O)[C@H](CCC(N)=O)NC(=O)[C@@H](CO)NC(=O)[C@@H](N)Cc1c[nH]cn1)[C@@H](C)O)[C@@H](C)O)[C@@H](C)CC)C(N)=O)C(=O)O` [(95)] (H-H[dS]QGTFTSDLSKQ[Cha]ESRRAQDFIEWLKAGGPSSGAPPPSK([γGlu-Palmitoyl])-NH2), the EC50 is 6.7 pM.

Regarding `CCCCCCCCCCCCCCCC(=O)NCCC(=O)NCCC(=O)NCCCC[C@H](NC(=O)[C@H](CO)NC(=O)[C@@H]1CCCN1C(=O)[C@@H]1CCCN1C(=O)[C@@H]1CCCN1C(=O)[C@H](C)NC(=O)CNC(=O)[C@H](CO)NC(=O)[C@H](CO)NC(=O)[C@@H]1CCCN1C(=O)CNC(=O)CNC(=O)[C@H](CO)NC(=O)[C@H](CCCCN)NC(=O)[C@H](CC(C)C)NC(=O)[C@H](Cc1c[nH]c2ccccc12)NC(=O)[C@H](CCC(=O)O)NC(=O)[C@@H](NC(=O)[C@H](Cc1ccccc1)NC(=O)[C@H](CC(=O)O)NC(=O)[C@H](CCC(N)=O)NC(=O)[C@H](C)NC(=O)[C@H](CCCNC(=N)N)NC(=O)[C@H](CCCNC(=N)N)NC(=O)[C@H](CO)NC(=O)[C@H](CCC(=O)O)NC(=O)[C@H](CCSC)NC(=O)[C@H](CCC(N)=O)NC(=O)[C@H](CCCCN)NC(=O)[C@H](CO)NC(=O)[C@H](CC(C)C)NC(=O)[C@H](CC(=O)O)NC(=O)[C@H](CO)NC(=O)[C@@H](NC(=O)[C@H](Cc1ccccc1)NC(=O)[C@@H](NC(=O)CNC(=O)[C@H](CCC(N)=O)NC(=O)[C@@H](CO)NC(=O)[C@@H](N)Cc1c[nH]cn1)[C@@H](C)O)[C@@H](C)O)[C@@H](C)CC)C(N)=O` [(98)] (H-H[dS]QGTFTSDLSKQMESRRAQDFIEWLKSGGPSSGAPPPSK([βAla-βAla-Palmitoyl])-NH2), a half-maximal response (EC50) required 5.1 pM.

Consider `CCCCCCCCCCCCCCCC(=O)N[C@@H](CCC(=O)NCCCC[C@H](NC(=O)[C@H](CO)NC(=O)[C@@H]1CCCN1C(=O)[C@@H]1CCCN1C(=O)[C@@H]1CCCN1C(=O)[C@H](C)NC(=O)CNC(=O)[C@H](CO)NC(=O)[C@H](CO)NC(=O)[C@@H]1CCCN1C(=O)CNC(=O)CNC(=O)[C@H](CO)NC(=O)[C@H](CCCCN)NC(=O)[C@H](CC(C)C)NC(=O)[C@H](Cc1c[nH]c2ccccc12)NC(=O)[C@H](CCC(=O)O)NC(=O)[C@@H](NC(=O)[C@H](Cc1ccccc1)NC(=O)[C@H](CC(=O)O)NC(=O)[C@H](CCC(N)=O)NC(=O)[C@H](C)NC(=O)[C@H](C)NC(=O)[C@H](CCCNC(=N)N)NC(=O)[C@H](CO)NC(=O)[C@H](CCC(=O)O)NC(=O)[C@H](CCSC)NC(=O)[C@H](CCC(N)=O)NC(=O)[C@H](CCCCN)NC(=O)[C@H](CO)NC(=O)[C@H](CC(C)C)NC(=O)[C@H](CC(=O)O)NC(=O)[C@H](CO)NC(=O)[C@@H](NC(=O)[C@H](Cc1ccccc1)NC(=O)[C@@H](NC(=O)CNC(=O)[C@H](CCC(N)=O)NC(=O)[C@@H](CO)NC(=O)[C@@H](N)Cc1c[nH]cn1)[C@@H](C)O)[C@@H](C)O)[C@@H](C)CC)C(N)=O)C(=O)O` [(103)] (H-H[dS]QGTFTSDLSKQMESRAAQDFIEWLKSGGPSSGAPPPSK([γGlu-Palmitoyl])-NH2), for which the response was half-maximal at 3.7 pM (EC50).

Regarding `CCCCCCCCCCCCCCCC(=O)N[C@@H](CCC(=O)NCCCC[C@H](NC(=O)[C@H](CO)NC(=O)[C@@H]1CCCN1C(=O)[C@@H]1CCCN1C(=O)[C@@H]1CCCN1C(=O)[C@H](C)NC(=O)CNC(=O)[C@H](CO)NC(=O)[C@H](CO)NC(=O)[C@@H]1CCCN1C(=O)CNC(=O)CNC(=O)[C@H](C)NC(=O)[C@H](CCCCN)NC(=O)[C@H](CC(C)C)NC(=O)[C@H](Cc1c[nH]c2ccccc12)NC(=O)[C@H](CCC(=O)O)NC(=O)[C@@H](NC(=O)[C@H](Cc1ccccc1)NC(=O)[C@H](CC(=O)O)NC(=O)[C@H](CCCCN)NC(=O)[C@H](C)NC(=O)[C@H](C)NC(=O)[C@H](CCC(=O)O)NC(=O)[C@H](CCC(=O)O)NC(=O)[C@H](CCC(=O)O)NC(=O)[C@H](CCSC)NC(=O)[C@H](CCC(N)=O)NC(=O)[C@H](CCCCN)NC(=O)[C@H](CO)NC(=O)[C@H](CC(C)C)NC(=O)[C@H](CC(=O)O)NC(=O)[C@H](CO)NC(=O)[C@@H](NC(=O)[C@H](Cc1ccccc1)NC(=O)[C@@H](NC(=O)CNC(=O)[C@H](CCC(N)=O)NC(=O)[C@@H](CO)NC(=O)[C@@H](N)Cc1c[nH]cn1)[C@@H](C)O)[C@@H](C)O)[C@@H](C)CC)C(N)=O)C(=O)O` [(110)] (H-H[dS]QGTFTSDLSKQMEEEAAKDFIEWLKAGGPSSGAPPPSK([γGlu-Palmitoyl])-NH2), the response was half-maximal at 2.9 pM (EC50). This EC50 and that of the compound before are within 1.5-fold of each other.
